Assay results published in article PMC6350621, “Small-molecules that covalently react with a human prolyl hydroxylase – towards activity modulation and substrate capture” (Chemical Communications (Cambridge, England), 2018).

Assays:
Type in all cases: binding
PHD2_181–426 = target: T1, PHD2_181–426 (Homo sapiens, UniProt Q9GZT9); test: Non-denaturing ESI-MS of covalent adduct formation with PHD2; details: equimolar PHD2/Fe(II), 37 °C
T1 construct: PHD2_181–426 (hereafter PHD2); His6 (N, cleaved yes); made in house; host or cells: bacterial culture (2x TY, kanamycin, IPTG)
Method: The interaction of the ligands with PHD2_181–426 (hereafter PHD2) was examined by non-denaturing ESI-MS, using cone voltage variation to distinguish covalent and non-covalent complexes (non-covalent interactions are typically preserved at cone voltages of 50–80 V, and dissociated at 200 V).[16]–[18] Aldehydes 1 and 2 were incubated with equimolar PHD2 and Fe(II) (37 °C; 5 or 20 min). […] Without Fe(II), neither covalent nor non-covalent adducts were observed, implying covalent conjugation involves active site Fe(II) binding, with subsequent condensation.
Fig. S2 A) Schematic representation of the assigned species formed on addition of 1 or 2 to PHD2. The results support initial non-covalent binding of the inhibitors to PHD2.Fe(II) to form B. Subsequently, condensation of a lysine residue with the aldehyde forms the covalent adduct C. (B) and (C): Non-denaturing ESI-MS data support the covalent crosslinking of 1/2 with PHD2. Conditions: PHD2 (20 µM) was incubated (37 °C, 5 or 20 min) with equimolar FeSO4 and 1 or 2, and the resulting mixtures were analysed by ESI-MS (cone voltage: 50 V or 200 V). Labelled peaks correspond to: A: Unmodified PHD2.Fe. B: Non-covalent adduct PHD2.Fe.2. C: Covalent adduct PHD2.Fe.1/2.
Fig. S6 The α,β-unsaturated amide 3 can covalently modify PHD2. (A) Schematic representation of the adducts formed upon incubation of 3 with PHD2.
PHD2. PHD2 (20 µM) was incubated (37 °C, 5 min, 1 h or 2 h) with equimolar FeSO4 and 3 or 4 before analysis by ESI-MS (cone voltage: 50 V or 200 V). Labelled peaks correspond to the following assigned complexes: A: unmodified PHD2.Fe; B: the non-covalent PHD2.Fe.3 adduct; C: the covalent PHD2.Fe.3 adduct.
2. Experimental procedures
1.1.1 Non-denaturing mass spectrometry1
Apo PHD2 was desalted using a Bio-Spin 6 Column (Bio-Rad, Hemel Hempstead, UK) into 15 mM ammonium acetate (pH 7.5). The stock solution was diluted with the same buffer to a final concentration of 100 μM. FeSO4·7H2O was dissolved in 20 mM HCl at a concentration of 100 mM. This solution was then diluted with MilliQ purified water to give a final working concentration of 100 μM. The protein was mixed with the Fe(II) solution and the inhibitor solution to give final concentrations of 20 μM PHD2, 20 μM Fe(II), and 20 μM inhibitor. The resultant solution was incubated for the appropriate time (specified in the text) at 37 […]
(5 min or 20 min) at 37 °C. After incubation, the samples were immediately analysed by ESI-MS. Data were acquired using a Q-TOF mass spectrometer (Q-TOF micro, Micromass, Altrincham, UK) interfaced with a Nanomate (Advion Biosciences, Ithaca, NY, USA) with a chip voltage of 1.70 kV and a delivery pressure 0.5 psi (1 psi = […]). The sample cone voltage was typically 200 or 50 V with a source temperature of 40 °C and with an acquisition/scan time of 10s/1s. Sample acquisition was performed in positive ion mode in the range of 2000-4000 m/z. The pressure at the interface between the atmospheric source and the high vacuum region was fixed at 6.30 mbar. External instrument calibration was achieved using sodium iodide.

PHD2_181–418 = target: T2, PHD2_181–418 (Homo sapiens, UniProt Q9GZT9); test: Non-denaturing ESI-MS crosslinking, 418 truncate; details: equimolar FeSO4 and compound, 3 h, 37 °C, 200 V
T2 construct: Both the 418 (PHD2_181–418); His6 (N, cleaved yes); made in house; host or cells: bacterial culture (2x TY, kanamycin, IPTG)
Method: (§1) The site of crosslinking of 3 was investigated using protein variants. First, 3 was incubated with C-terminal truncated PHD2 (PHD2_181–402) and a loop deletion variant (deletion of residues 238–250, PHD2Δ). […] Thus, 3 was incubated with PHD2 constructs truncated at residues 402, 410, 414 and 418. […] Crosslinking experiments with PHD2 R411M implied that R411 is not directly involved in crosslinking (Fig. S11, ESI ^†).
(§2) Fig. S8 Temperature dependence of the rate of crosslinking of 3 with PHD2. PHD2 (20 µM) was incubated with equimolar Fe(II) and 3 in buffer (50 mM Tris, 150 mM NaCl, pH 7.5) at 4, 20 and 37 °C. The ratio of crosslinking after 1, 2, and 4 h was determined by ESI-MS under denaturing conditions (n = 2), error bars represent 1 standard deviation.
(§3) Fig. S9 Ratio of crosslinked PHD2.3 before evaluation of catalytic activity. Labelled peaks correspond to: (A): PHD2, […]
Fig. S10 Non-denaturing ESI-MS analysis of (a) PHD2 and its C-terminal truncations (b) PHD2181-418; (c) PHD2181-414;
(d) PHD2181-410; (e) PHD2181-402 in the presence of equimolar amounts of FeSO4 and 3 after 3 hours incubation at 37 °C in ammonium acetate (15 mM, pH 7.5) at a sample cone voltage of 200V. Peaks present: (A): PHD2.Fe; (B): PHD2181-

PHD1 = PHD1 (Homo sapiens, UniProt Q96KS0); test: Denaturing MS covalent adduct formation with PHD1; details: enzyme 20 μM, Fe(II) 30 μM, compound 30 μM, 37 °C, 4 h
PHD2_181–402 = target: T3, PHD2_181–402 (Homo sapiens, UniProt Q9GZT9); test: Non-denaturing ESI-MS crosslinking, C-terminal truncated PHD2; details: equimolar Fe(II) and compound, 3 h, 37 °C, 200 V
T3 construct: C-terminal truncated PHD2 (PHD2_181–402); His6 (N, cleaved yes); made in house; host or cells: bacterial culture (2x TY, kanamycin, IPTG)
Method: as §1
Fig. 3 (A) Non-denaturing ESI-MS data on the flexible loop truncated (top) and C-terminal tail tuncated (bottom) versions of PHD2 in the presence of equimolar Fe(II) and 3 (3 hour incubation, 37 °C. Cone voltage: 200 V). A = [PHD2Δ + Fe], B = [PHD2Δ + Fe + 3], C = [PHD2_181–402 + Fe], D = [PHD2_181–402 + Fe + 3]. (B) MS/MS spectrum of the trypsin derived peptide 403[…]411 crosslinked to 3 identified K408 as the site of crosslinking.
as §2, §3

T1 sequence (Q9GZT9 181-426): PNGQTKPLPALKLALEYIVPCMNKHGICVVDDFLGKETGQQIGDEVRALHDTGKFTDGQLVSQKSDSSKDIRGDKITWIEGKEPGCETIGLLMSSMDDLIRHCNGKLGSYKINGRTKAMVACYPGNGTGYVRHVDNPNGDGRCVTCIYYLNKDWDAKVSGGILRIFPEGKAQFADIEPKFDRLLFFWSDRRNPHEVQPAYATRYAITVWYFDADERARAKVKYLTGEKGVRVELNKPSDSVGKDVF
Sequence of PHD1 (Q96KS0 whole entry, the tested form may be a part): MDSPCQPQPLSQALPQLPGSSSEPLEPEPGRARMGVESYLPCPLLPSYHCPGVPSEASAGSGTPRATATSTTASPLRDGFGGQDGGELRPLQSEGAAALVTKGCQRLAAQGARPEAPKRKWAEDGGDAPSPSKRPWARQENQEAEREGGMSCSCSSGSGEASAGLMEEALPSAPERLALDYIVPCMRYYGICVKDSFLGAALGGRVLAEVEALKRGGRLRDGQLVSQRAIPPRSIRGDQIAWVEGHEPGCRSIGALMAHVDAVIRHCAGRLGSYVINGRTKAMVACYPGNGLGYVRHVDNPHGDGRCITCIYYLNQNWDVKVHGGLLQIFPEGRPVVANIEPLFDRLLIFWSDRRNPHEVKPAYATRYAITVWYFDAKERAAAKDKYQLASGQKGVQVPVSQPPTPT
T3 sequence (Q9GZT9 181-402): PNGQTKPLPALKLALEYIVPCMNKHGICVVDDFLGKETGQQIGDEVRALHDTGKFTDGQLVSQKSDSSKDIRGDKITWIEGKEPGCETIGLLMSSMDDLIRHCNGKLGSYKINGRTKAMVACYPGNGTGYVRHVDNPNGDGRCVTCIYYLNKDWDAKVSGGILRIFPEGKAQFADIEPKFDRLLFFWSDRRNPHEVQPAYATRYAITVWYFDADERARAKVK
T2 sequence (Q9GZT9 181-418): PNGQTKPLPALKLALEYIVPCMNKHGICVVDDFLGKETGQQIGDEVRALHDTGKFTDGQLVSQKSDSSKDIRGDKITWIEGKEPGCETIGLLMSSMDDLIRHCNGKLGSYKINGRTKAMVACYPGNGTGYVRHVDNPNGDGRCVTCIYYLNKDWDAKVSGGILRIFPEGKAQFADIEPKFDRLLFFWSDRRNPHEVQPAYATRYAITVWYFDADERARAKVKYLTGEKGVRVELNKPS

C=CC(=O)Nc1cccc(C(=O)NCC(=O)O)c1O [compound 3]
conversion to the covalent adduct after 1 h (PHD2_181–426; 1 h): 1/3
conversion to the covalent adduct after 2 h (PHD2_181–426; 2 h): 2/3
covalent modification of 418 truncate (PHD2_181–418): covalently modified
covalent reaction with PHD1 (PHD1): did not covalently react
crosslinking with C-terminally truncated PHD2 (PHD2_181–402): near completely absent
